From US10654843B2, “LMP7 inhibitors” (PRINCIPIA BIOPHARMA INC., priority 2014, dated 2020)
Like-named read-outs stand apart in the source and are kept apart here. Each block holds one molecule with its values, some of them ahead of it.

Tests used:
[1] = system: human Th1/17 differentiation; conditions: cited from earlier work
[2] = system: B cell effector functions; conditions: cited from earlier work
[3] = system: proinflammatory cytokines (IL-6, TNF-α, IL-23); conditions: cited from earlier work
[4] = system: murine collagen-induced arthritis; conditions: including inflammation and bone erosion; cited from earlier work
MRL/lpr lupus model = conditions: cited from earlier work
[5] = system: mouse Th1/17 differentiation; conditions: cited from earlier work
[6] = system: murine DSS-induced colitis model; conditions: cited from earlier work
[7] = system: Hashimoto's thyroiditis model; conditions: autoantibody-driven model; cited from earlier work
[8] = molecular target: T1, proteasome activity in primary human peripheral blood mononuclear cells (PBMC) (Homo sapiens, UniProt P28062); assay: Inhibition of proteasome activity in cells (Proteasome-Glo), PBMC; assay type: cell-based; conditions: 2 hr incubation, Suc-LLVY-aminoluciferin
T1 construct: endogenous in cells; host or cells: primary human PBMC
Experimental: (§1) The cell-based effects of the compound of the present disclosure on immunoproteasome were determined by measuring inhibition of proteasome activity in cells using the Proteasome-Glo™ Cell-Based Reagent (Promega, Madison Wis). The Proteasome-Glo™ assay contains a specific luminogenic proteasome substrate in a buffer optimized for cell permeabilization, proteasome activity, and luciferase activity. For the chymotrypsin-like activity, the peptide substrate is Suc-LLVY-aminoluciferin (Succinyl-leucine-leucine-valine-tyrosine-aminoluciferin). Cleavage of the substrate by proteasome results in luminescent signal which is proportional to the proteasome activity. The cell line THP-1 (a monocytic leukemia cell line enriched in immunoproteasome), the cell line HT-29 (a colorectal adenocarcinoma cell line enriched in constitutive proteasome), and primary human peripheral blood mononuclear cells (PBMC) were used to assess proteasome activity. Cells were seeded in a 96-well plate at 10,000 cells per well in RPMI 1640 high glucose medium with 10% fetal bovine serum (FBS). Compound dilutions were added to cells starting at a concentration of 5 uM and decreasing in tripling dilutions. The final DMSO concentration was 1%. The concentration range was adjusted as needed for compounds of different potencies. The cells treated with compounds were incubated for 2 hr at 37° C. in 5% CO2. At the end of the 2 hour incubation period, cells were transferred to white 384 well assay plates. 20 uL of Proteasome-Glo™ Reagent was added to each well and incubated for 10 minutes at room temperature. The plate was read in the Analyst HT instrument (Molecular Devices, Sunnyvale, Calif.) using luminescence mode. The percent inhibition of activity was plotted as a function of log compound concentration. The IC50 was then calculated for each compound using Prism software from GraphPad Software Inc. (San Diego, Calif).

[9] = molecular target: constitutive proteasome (B5c) (Homo sapiens, UniProt P20618+P28074); assay: Caliper-based proteasome assay, constitutive proteasome chymotrypsin-like activity; assay type: biochemical; conditions: human recombinant constitutive proteasome 0.3 nM, FAM-labeled peptide substrate 1 μM, room temperature 3 h
Experimental: (§2) A Caliper-based proteasome assay (Caliper Life Sciences, Hopkinton, Mass.) was used to measure inhibition of the chymotrypsin-like activity of both immunoproteasome (LMP7/B5i) and the constitutive proteasome (B5c) for a compound of Formula (I). Serial dilutions of test compounds were incubated with either human recombinant immunoproteasome or constitutive proteasome (0.3 nM enzyme) and a carboxyfluorescein (FAM)-labeled peptide substrate FAM-TYETFKSIMKKSPF-NH2 (1 μM) at room temperature for 3 h. The reaction buffer was 20 mM Hepes pH 7.4, 0.01% bovine serum albumin, 0.015% SDS, 0.5 mM EDTA, 1% DMSO. The reaction was then terminated with a buffer containing the known proteasome inhibitor carfilzomib at a concentration of 5 uM. The peptide cleavage reaction product was quantified on a Caliper LabChip 3000. Percent inhibition was calculated for each compound dilution and the concentration that produced 50% inhibition was calculated. This value is presented as the IC50.

[10] = molecular target: T2, proteasome activity in HT-29 cells (enriched in constitutive proteasome) (Homo sapiens, UniProt P28074); assay: Inhibition of proteasome activity in cells (Proteasome-Glo), HT-29; assay type: cell-based; conditions: 2 hr incubation, Suc-LLVY-aminoluciferin, read-out: HT29 IC50
T2 construct: endogenous in cells; host or cells: HT-29
Experimental: as §1

[11] = molecular target: immunoproteasome (LMP7/B5i) (Homo sapiens, UniProt P20618+P28062); assay: Caliper-based proteasome assay, immunoproteasome chymotrypsin-like activity; assay type: biochemical; conditions: human recombinant immunoproteasome 0.3 nM, FAM-labeled peptide substrate 1 μM, room temperature 3 h
Experimental: as §2

immunoproteasome (LMP7) = immunoproteasome (LMP7) (Homo sapiens, UniProt P20618+P28062); assay: Recovery of enzymatic activity upon dialysis; assay type: biochemical; conditions: FIG. 1, dialysis
Description: The dialysis assay was done to determine if a compound binds reversibly or irreversibly to immunoproteasome thereby resulting in reversible or irreversible inhibition of proteaseome activity. […] Partial or complete recovery of proteasome activity over extended periods of time during dialysis is indicative of slow off-rate kinetics due to formation of a reversible covalent bond. For rapidly reversible compounds complete recovery of proteosome activity upon dialysis is expected to be observed.
A solution containing immunoproteasome was incubated with a compound of the disclosure (test compound) or (S)-4-methyl-N—((S)-1-(((S)-4-methyl-1-((R)-2-methyloxiran-2-yl)-1-oxopentan-2-yl)amino)-1-oxo-3-phenylpropan-2-yl)-2-((S)-2-(2-morpholino-acetamido)-4-phenylbutanamido)-pentanamide (reference compound), an irreversible covalent inhibitor of the immunoproteosome which targets the catalytic threonine of the immunoproreasome subunits (see Kuhn, D. J., et al. 2007. Potent activity of carfilzomib, a novel, irreversible inhibitor of the ubiquitin-proteasome pathway, against preclinical models of multiple myeloma. Blood, 110(9), 3281-3290). […] Following dialysis, enzymatic activity was measured using the Caliper-based proteasome activity assay (Caliper Life Sciences, Hopkinton, Mass). […]

[12] = molecular target: T3, proteasome activity in HT-29 cells (Homo sapiens, UniProt P28074); assay: Durability of binding in cells, wash-out assay (Proteasome-Glo), HT-29; assay type: cell-based; conditions: 2 hours incubation, washout
T3 construct: endogenous in cells; host or cells: HT-29
Experimental: The durability of binding of proteasome inhibitors was assessed in cells using wash-out assays and the Proteasome-Glo™ Reagent kit. THP-1 cells, HT-29 cells, or PBMC were incubated with an 8-fold dilution series of inhibitor for 2 hours. Following 2 hours of incubation, cells were washed using 3 occasions of centrifugation followed by resuspension in culture medium. Following inhibitor washout, cells were returned to culture for either 30 minutes, 4 hours, or 18 hours. Cells were then transferred to white 384 plates, and 20 uL of Proteasome-Glo™ Reagent was added to each well for 10 minutes. Plates were then read on an Analyst HT plate reader using luminescence mode. The percent inhibition of activity was plotted as a function of log compound concentration. The IC50 was then calculated for each compound using Prism software from GraphPad.

[13] = system: multiple myeloma cell lines and primary patient tumor cells; conditions: including those resistant to conventional and novel prior therapies; cited from earlier work

SMILES: COc1ccc(C[C@H](NC(=O)[C@H](C)NC(=O)CN2CCOCC2)C(=O)N[C@@H](Cc2ccccc2)C(=O)[C@@]2(C)CO2)cc1 [PR-957]
- human Th1/17 differentiation [1]: potently block
- B cell effector functions [2]: potently block
- production of proinflammatory cytokines (IL-6, TNF-α, IL-23) [3]: potently block
- disease activity in murine collagen-induced arthritis [4]: significantly inhibit disease activity
- anti-dsDNA IgG levels (MRL/lpr lupus model): reduced
- disease progression (MRL/lpr lupus model): prevented disease progression
- plasma cell numbers (MRL/lpr lupus model): reduced
- mouse Th1/17 differentiation [5]: potently block
- inflammation and tissue destruction [6]: reduced inflammation and tissue destruction
- efficacy in Hashimoto's thyroiditis model [7]: efficacious

- IC50 [8]: 3 nM
- IC50 [9]: 1030 nM
- IC50 [10]: 1370 nM
- IC50 [11]: 27 nM
- binding to the immunoproteosome (immunoproteasome (LMP7)): reversible
- IC50 ([12]; 30 minutes in culture, read-out: HT29 (30 min) IC50): > 5000 nM
- IC50 ([12]; 4 hours in culture, read-out: HT29 (4 h) IC50): > 5000 nM
SMILES: Cc1ccc(CNC(=O)[C@H](COc2cccc(C=C(C#N)C(=O)NC(C)(C)C)c2)NC(=O)[C@@H](NC(=O)c2cc(C)on2)[C@@H](C)O)cc1 [Example 3]

SMILES: CC1=C(C(=O)N[C@H](C)C(=O)N[C@@H](Cc2c[nH]c3ccccc23)C(=O)N[C@@H](Cc2ccccc2)C(=O)[C@@]2(C)CO2)Cc2ccccc21 [PR-924]
- growth of multiple myeloma cell lines and primary patient tumor cells [13]: inhibit growth
